# From patent US20250195523A1, “ORGANIC MOLECULES FOR TREATING MYELIN PATHOLOGIES” (ICM (INSTITUT DU CERVEAU ET DE LA MOELLE ÉPINIÈRE), priority 2022, published 2025)
# Tests used:
# [1] = tested on: cerebellar slices explants; assay: Ex vivo cerebellar organotypic explant culture, differentiation and myelination index; format: cell-based, mice; details: 750 nM, three days (7-10 DIV); for differentiation index (CC1+/Sox10+ OLs number): compared to negative controls, FIG. 3B
# Method: We prepared cerebellar organotypic cultures from newborn (P0) mice. Cerebellar parasagittal slices (350 μm thick) were cut on a McIlwain tissue chopper and transferred onto 30 mm diameter Millipore culture inserts with […] (Millicell, Millipore). Slices were maintained in incubators at 37° C., under a humidified atmosphere containing 5% CO2 in six-well-plates containing 1 mL of slice culture media. This medium includes basal medium eagle (Invitrogen), 25% complete HBSS, 27 mM D-glucose, 100 U/mL penicillin/streptomycin, 1 mM glutamine (Sigma) and 5% horse serum (New Zealand origin, heat inactivated; Invitrogen). Medium was renewed every 2 days until 7 DIV, reaching the appropriate culture periods to study OPC differentiation and myelination. […] Slices were collected and fixed for 1 h at RT in PBS-4% paraformaldehyde, washed 3 times in PBS, and incubated 20 min at 4° C. in Clark's solution (95% ethanol/5% acetic acid), then washed 3 times in PBS 1×.
# For ex-vivo cerebellar slices, slices were incubated 20 min at 4° C. in Clark's solution (95% ethanol/5% acetic acid), then washed 3 times in PBS 1×. Then, sections were incubated for 1 hour in a blocking buffer (0.2% Triton X-100/4% bovine serum albumin/4% donkey serum/PBS). Slices were incubated for 2 hours with the following primary antibodies at RT: Goat anti-Sox10 (1:100, R&D Systems); Rabbit anti-Calbindin (1:1000; Swant); Rat anti-MBP (1:200; Abcam); Mouse anti-CC1 (IgG2b; 1:100, Calbiochem). Then slices were washed 3 times in PBS/0.1% Triton X-100 and incubated in blocking buffer (dark, RT) for 2 hours with appropriate secondary antibodies conjugated with Alexa Fluor 488, 594 and 647 (1:1000; Molecular Probes or Thermo Fisher) and Dapi (1:5000 from working solution at 5 mg/ml; Life Technologies; D1306). Finally, slices were washed 3 times in PBS/0.1% Triton X-100 after incubation and mounted in Fluoromount-G (SouthernBiotech).
# Then, we firstly performed a simpler and faster experimental model using cerebellar slices explants to identify the best drugs having pro-oligodendrogenenic and pro-myelinating activities in this ex vivo model, to be used in the in vivo analyses. Indeed, this model allowed us to better assess later aspects of OL maturation, myelination, and cytotoxicity in a richer cellular system, also containing immune cells (microglia/macrophages) that are known to influence oligodendrogenesis and (re) myelination. In this model, the start of myelination takes place after 7 days in culture (FIG. 3A). […] We then analyzed the effect in terms of OL numbers (CC1+/Sox10+ cells) and myelination (MBP labeling on CaBP+ Purkinje cell axons), by immunodetection of all four markers in the same sections. We calculated the differentiation index as the ratio of Sox10+ cells being CC1+, and the myelination index as the ratio CaBP+ axons being MBP+. […] On the one hand, we used the adult focal de/remyelination induced by intracerebral injection of […] (LPC) mimicking de/remyelination of MS, and on the other hand, the neonatal chronic hypoxia model, mimicking PTB hypomyelination.
# [2] = tested on: primary OPCs purified by magnetic cell sorting (MACS) from neonatal cortices; assay: Primary OPC cultures purified by MACS, morphological complexity of OLs; format: cell-based, mice; details: OPCs treated for two days; compared to vehicle; FIG. 2B
# Method: Brains were collected from PLPGFP and P4 Swiss mice […] and washed 3 times in PBS 1× (Invitrogen) with 1% of penicillin/streptomycin (Sigma). Cortex and corpus callosum were dissected and dissociated using neural tissue dissociation kit (T) (Miltenyi biotec) and with dissociator (gentleMACS Octo Dissociator, Miltenyi Biotec). OPC magnetic cell sorting was performed using anti-PDGFRα-coupled-beads (CD140a-PDGFRα MicroBead Kit, Miltenyi biotec) and MultiMACS Cell24 Separator Plus (Miltenyi biotec). Cells were collected in PBS and amplified for 2 days in a proliferating medium (with growth factors IGF, EGF, FGF, and PDGFα). Then, 40.000 cells were plated in 24 well plates adherent on coverslips, beforehand coated with poly-ornithine (Merck) diluted in 4 volumes of H2O and washed 3 times. Successively, for 2 days of proliferation and differentiation, medium was added with drugs at 250 nM, 500 nM and 750 nM, and their respective vehicles (DMSO, PBS). Cells were fixed in 4% PBS-paraformaldehyde (thermo fisher) for 10 minutes and washed 3 times in PBS-1×.
# For coated-coverslip, blocking was performed in a moist chamber for 30 mn at room temperature (RT) in the blocking buffer (0.05% Triton X-100/10% normal goat serum/PBS). Then, coverslip were incubated for 30 mn with the following primary antibodies at RT. Rat anti-PDGFRα (1:250, BD Biosciences); Mouse anti-CNPase (mlgG1, 1:250; Millipore); Rabbit anti-Btub (1:1000; BABCO); Chicken anti-GFAP (1:500, Avelabs), Mouse anti-MBP (mlgG1, 1:150; Abcam); Rabbit anti-Sox10 (1:1000; Proteintech). Following 3 washing in 0.05% Triton X-100/PBS, coverslips were incubated 30 min at RT in dark with appropriate secondary antibodies conjugated with Alexa Fluor 488, 594 and 647 (1:1000; Molecular Probes or Thermo Fisher) and Dapi (1:5000 from working solution at 5 mg/ml; Life Technologies; D1306). Coverslips were washed 3 times in 0.05% Triton X-100/PBS and mounted with Fluoromount-G (SouthernBiotech).
# To evaluate cell specific contribution of the drugs directly in OL differentiation and maturation, we used primary OPCs purified by magnetic cell sorting (MACS) from neonatal cortices (P4).
# [3] = tested on: neural progenitor cells (NPCs) obtained from the neonatal SVZ; assay: Neonatal neural progenitor cell (neurosphere-derived) differentiation cultures, immunodetection of neural lineages; format: cell-based, mice; details: for increase in iOLs (Sox10high cells): fold-change between drug treatment and vehicle, FIG. 1G; for neurogenesis (neuronal β-III-tubulin+ cells): 750 nM, compared to vehicle, FIG. 1D
# Method: NSC medium was prepared using up to 50 ml DMEM/F12 (Gibco), containing 666 μl glucose at 45% (Sigma), 0.5 ml penicillin/streptomycin (Sigma), 250 μl HEPES buffer at 1M (Gibco), 500 μl mL N2 supplement (Gibco), 1 mL B27 supplement (Gibco) and with growth factors Insulin 20 μg/ml (Sigma), EGF at 20 ng/ml (Peprotech), FGF 10 ng/ml (Peprotech). Brains were collected from Swiss mice at P0 and washed 3 times in PBS 1× (Invitrogen) with 1% of penicillin/streptomycin (Sigma). SVZ was dissected, transferred in fresh NSC medium and dissociated with pipette. Cells were amplified in a 25 ml flask (1 million of cells for 5 mL of medium), and maintained in a humidified atmosphere at 37° C. and 5% of CO2. Two-three days after, cells have grown as floating neurospheres and were collected by centrifugation at 500 g for 5 mn, dissociated before adding proliferating NSC medium. After 2 passages, 30.000 cells were plated in 24 well plates adherent on coverslips, beforehand coated with poly-ornithine (Merck) diluted in 4 volumes of H2O and washed 3 times. Drugs were added at different ranges of concentration (250 nM, 500 nM and 750 nM) and their respective vehicles (DMSO, or PBS). Medium (including drugs or vehicle) was changed each 2 days. After 4 days with proliferation factors, a differentiation medium without growth factors was added (with drugs or vehicle) for two days. Cells were washed once in PBS, fixed in 4% PBS-paraformaldehyde (thermofischer) for 10 minutes, and washed 3 times in PBS-1×.
# To do so, we first used a culture of mix neural progenitor cells (NPCs) obtained from the neonatal SVZ (postnatal day 1, P1). […] We supplemented the drugs in both the proliferation and differentiation medium to analyze both their effect in neural cell type specification into the different neural lineages, and assess their ability to foster OPC differentiation. […]
# [4] = tested on: focal demyelination in the corpus callosum of adult mice; assay: Lysolecithin (LPC) induced focal de/remyelination model in adult mice, oral administration in drinking water; format: in vivo; details: 7 dpl, oral daily
# Method: We weighted and anesthetized 4 months old RjOrl: SWISS mice (Janvier) with isoflurane (induced at 3%, and maintained at 1.2-1.6%). We induced focal demyelinating lesions by injecting 0.5 μl of a solution of 1% lysolecithin (LPC, Sigma in 0.9% NaCl solution) into the corpus callosum. To do so, a glass-capillary connected to a 10 μl Hamilton syringe was fixed and oriented through stereotaxic apparatus (coordinates: 1 mm lateral, 1.3 mm rostral to Bregma, 1.7 mm deep to brain surface). Animals were left to recover for a few hours in a warm chamber. […] Mice was perfused at 2% cold paraformaldehyde (thermos fisher) at 7 DPI.
# For in-vivo cryosections (14-μm thick) of lesions, immunohistochemistry was performed after 30 mn drying at RT in a moist chamber. For myelin staining, ethanol treatment (100%) was performed for 10 mn at RT. Briefly, sections were permeabilized and blocked in a blocking buffer for 1 h (0.05% Triton X-100/10% normal goat serum/PBS). Then, cryosections were incubated overnight with the following primary antibodies at 4° C.: Mouse anti-APC (CC1 IgG2B; 1:100, calbiochem); Rabbit anti-Olig2 (1:500; Millipore); Mouse anti-Olig1 (IgG1; 1:500; NeuroMab); Rat anti-CD68 (1:500, AbD SEROTEC/BioRad); Rabbit anti-IBA1 (1:500, Wako Fujifilm); Mouse anti-MOOG (mlgG1, 1:20; Hybridoma). Then sections were washed 3 times in 0.05% Triton X-100/PBS and incubated 1 hour at RT with appropriate secondary antibodies conjugated with Alexa Fluor 488, 594 and 647 (1:1000; Molecular Probes or Thermo Fisher) and Dapi (1:5000 from working solution at 5 mg/ml; Life Technologies; D1306). Sections were washed 3 times in 0.05% Triton X-100/PBS and mounted with Fluoromount-G (SouthernBiotech).
# We analyzed the lesions at 7 days post-lesion (7 dpl), when newly formed OLs have started to remyelinate the lesion in this model. The lesion area was identified by immunodetection of the high cellular density with DAPI staining, reduction of myelin with myelin oligodendrocyte glycoprotein (MOG), and abundance of microglia/macrophages with Iba1 and Cd68. We determined the effect of the drugs to promote oligodendrogenesis at the lesion site by combinatory immunodetection of Olig2, CC1 and Olig1, allowing to distinguish OPCs (Olig2^high/CC1^−/Olig1^nuclear-cyto cells) and three stages in OL differentiation: iOL1 (Olig2^high/CC1^high/Olig1^− cells), iOL2 (Olig2^high/CC1^high/Olig1^high-cyto cells), and mOL (Olig2^low/CC1^low/Olig1^low cells). […] Given the increase in OL differentiation by the drugs administration, without diminishing the pool of OPCs in the lesion area, we assessed for the proliferative status of OPCs, using Mcm2 and Ki67 proliferative markers, finding that both drugs promote a ˜2-fold increase in the density of proliferative OPCs (FIG. 4D) and in the proportion of proliferative OPCs (FIG. 4E).
# To investigate the possible anti-inflammatory and pro-regenerative activity of these drugs, we performed staining for microglia/macrophages (Iba1+ cells), their active phagocytic status (Cd68+ cells), together with myelin (MOG) and cell density (DAPI) to identify the lesion area.
smiles,measurement,setting,value
"Cc1cc2c(cc1S(N)(=O)=O)S(=O)(=O)CCC2 [Sm1, Meticrane]",differentiation index (CC1+/Sox10+ OLs number),[1],increased differentiation index
same,morphological complexity of OLs (PLP+ cells),[2],strongly increased
"CC(N)CCCC(C)(C)O (stereo not shown) [Sm2, Heptaminol]",differentiation index (CC1+/Sox10+ OLs number),[1],increased differentiation index
same,"myelination process (MBP+/CaBP+), myelination index","[1]; compared to vehicle, FIG. 3C",robust increase
same,morphological complexity of OLs (PLP+ cells),[2],strongly increased
"C[C@@H]1C(=O)O[C@H]2C[C@@]34[C@H]5C[C@@H](C(C)(C)C)[C@]36[C@@H](OC(=O)[C@@H]6O)O[C@@]4(C(=O)O5)[C@]21O [Sm6, Ginkgolide A]",morphological complexity of OLs (PLP+ cells),[2],strongly increased
"C#C[C@]1(O)CC[C@H]2[C@@H]3CCC4=CC(=O)CC[C@@H]4[C@H]3CC[C@@]21CC [Sm7, Levonorgestrel]",increase in iOLs (Sox10high cells),[3],increased tendency not reaching statistical significance
"S=C(NC1CCCCC1)N1CCC(c2cnc[nH]2)CC1 [Sm9, Thioperamide]",neurogenesis (neuronal β-III-tubulin+ cells),[3],positive effect
"OC(CCN1CCCCC1)(c1ccccc1)C1CCCCC1 (stereo not shown) [Sm10, Trihexyphenidyl]",increase in iOLs (Sox10high cells),[3],increased tendency not reaching statistical significance
"Nc1nc(=O)c2c([nH]1)NCC(CNc1ccc(C(=O)N[C@@H](CCC(=O)O)C(=O)O)cc1)N2C=O.[Ca+2] (stereo partly shown) [Sm11, Calcium folinate]",morphological complexity of OLs (PLP+ cells),[2],strongly increased
same,neurogenesis (neuronal β-III-tubulin+ cells),[3],positive effect
same,number of oligodendroglial cells in the remyelinating area (Olig2+ cells),"[4]; sm5 at 5 μg per g, control 942.5±265.7, FIG. 4B",1558±331 Olig2+ cells per mm^2
same,density of OPCs (Olig2high/CC1−/Olig1nuclear-cyto cells) in the lesion area,[4]; FIG. 4C,did not change
same,pro-regenerative microglia (Arg1+ cells),[4]; FIG. 4I,corresponding increase
same,actively phagocytic microglia/macrophages (Cd68+ cells),"[4]; control 22.45%, FIG. 4H",12.13%±5.14
same,surface occupied by Iba1+ microglia/macrophages in the lesion area,"[4]; control 33.64%, FIG. 4G",27.28%±4.16
same,"increase of each stage of OL differentiation (iOL1, iOL2 & mOL)",[4]; versus control,~2 fold
same,"increase in the density of proliferative OPCs (Mcm2, Ki67 markers)","[4]; versus control, FIG. 4D",~2 fold
same,increase in the proportion of proliferative OPCs,"[4]; versus control, FIG. 4E",~2 fold
